Literature values in patent US20210196801A1, “Starting Dose of PTH Conjugates” (Ascendis Pharma Bone Diseases A/S, priority 2018, published 2021).
Read-outs that look alike come from different tables or passages of the source.

Tests used:
[1] = not given; remark: listed apart in the source

Molecule	half-life (after IV administration)	half-life (after subcutaneous administration, due to prolonged absorption) [h]	half-life ([1]; IV)	half-life ([1]; after subcutaneous administration)
CC[C@H](C)[C@H](NC(=O)[C@H](CCC(=O)O)NC(=O)[C@H](CO)NC(=O)[C@@H](NC(=O)[C@@H](N)CO)C(C)C)C(=O)N[C@@H](CCC(N)=O)C(=O)N[C@@H](CC(C)C)C(=O)N[C@@H](CCSC)C(=O)N[C@@H](Cc1cnc[nH]1)C(=O)N[C@@H](CC(N)=O)C(=O)N[C@@H](CC(C)C)C(=O)NCC(=O)N[C@@H](CCCCN)C(=O)N[C@@H](Cc1cnc[nH]1)C(=O)N[C@@H](CC(C)C)C(=O)N[C@@H](CC(N)=O)C(=O)N[C@@H](CO)C(=O)N[C@@H](CCSC)C(=O)N[C@@H](CCC(=O)O)C(=O)N[C@@H](CCCN=C(N)N)C(=O)N[C@H](C(=O)N[C@@H](CCC(=O)O)C(=O)N[C@@H](Cc1c[nH]c2ccccc12)C(=O)N[C@@H](CC(C)C)C(=O)N[C@@H](CCCN=C(N)N)C(=O)N[C@@H](CCCCN)C(=O)N[C@@H](CCCCN)C(=O)N[C@@H](CC(C)C)C(=O)N[C@@H](CCC(N)=O)C(=O)N[C@@H](CC(=O)O)C(=O)N[C@H](C(=O)N[C@@H](Cc1cnc[nH]1)C(=O)N[C@@H](CC(N)=O)C(=O)N[C@@H](Cc1ccccc1)C(=O)O)C(C)C)C(C)C [Teriparatide]	about 5 minutes	~1		
Natpara: PTH(1-84), approved for once-daily subcutaneous injection in patients with hypoparathyroidism			about 5 minutes	about 3 hours
